The values that follow come from patent US7994122B2, “Glucagon analogues” (Zealand Pharma A/S, priority 2007, dated 2011).

One test deals with T1, hGLP-1-R (Homo sapiens, UniProt P43220).
T1 construct: expressed in transfected cells
Put plainly: GLP-1 receptor efficacy assay (cAMP) in HEK293 cells expressing hGLP-1-R. In kind it is cell-based. The source says: The DNA encoding the Glucagon-R or the GLP-1-R was amplified by PCR using primers encoding terminal restriction sites for subcloning. The 5′-end primers additionally encoded a near Kozak consensus sequence to ensure efficient translation. The PCR products encoding the Glucagon-R or the GLP-1-R were subcloned into a mammalian expression vector. The fidelity of the DNA encoding the Glucagon-R and the GLP-1-R was confirmed by DNA sequencing. As the mammalian expression vector additionally encodes for G418 resistance, transfected cells may be selected by applying selection pressure with G418. […] 48 hr after transfection cells were seeded for limited dilution cloning and selected with 1 mg/ml G418 in the culture medium. […] One Glucagon-R expressing clone and one GLP-1-R expressing clone were chosen for compound profiling.
HEK293 cells expressing the hGlucagon-R, or hGLP-1-R are seeded at 40,000 cells per well in 96-well microtiter plates coated with 0.01% poly-L-lysine and grown for 1 day in culture in […] growth medium. On the day of analysis, growth medium is removed and the cells washed once with 200 μl Tyrode buffer. Cells are incubated in 100 μl Tyrode buffer containing increasing concentrations of test peptides, 100 μM IBMX, and 6 mM glucose for up 15 min at 37° C. The reaction is stopped by addition of 25 μl 0.5 M HCl and incubated on ice for 60 min. The cAMP content is estimated using the FlashPlate® cAMP kit from Perkin-Elmer. EC50 and relative efficacy are estimated by computer aided curve fitting.

Test [1] can be described thus: Body weight in diet induced obese (DIO) mice. In kind it is in vivo, C57BI/6J male mice. The conditions noted are these: HFD (DIO) mice. As to the method:
Efficacious glucagon/GLP-1 receptor agonists are tested on 9-15 weeks old, 40 C57BI/6J male mice which have been kept on a High Fat Diet (HFD)—60% high-fat food (Cat. No. D12492: 20% protein, 20% carbohydrate, and 60% fat, 5.2 kcal/g; Research Diets, New Jersey, USA, for 4 weeks. The high-fat food contains soybean oil (25/773.85 g) and lard (245/773.85 g).
DIO-mice are treated with vehicle or co-agonists for 2-4 weeks by bolus administration (s.c.) twice daily. Body weight is monitored daily throughout the experiment. At the end of the experimental period animals are sacrificed, blood collected for analysis of glycated hemoglobin and a range of hormones and peptides involved in regulation of appetite, food intake, body weight, and energy balances. In addition, the epididymal/perigonadal fat pads and retroperitoneal fat (WAT) as well as the intrascapular Brown Adipose Tissue (BAT) are dissected out and weighed. […]
Following an acclimatization treatment with 100 μl vehicle (PBS) once a day for two weeks DIO-mice were treated with vehicle, control peptides or Compound 3 for 4 weeks by bolus administration (s.c.) twice daily. Body weight was monitored daily throughout the experiment. […]

For test [2] the following is noted: administered separately; Dakin et al. 2001; cited from earlier work.

Where no end group is shown, it is not given here.

T1 sequence (P43220 24-463): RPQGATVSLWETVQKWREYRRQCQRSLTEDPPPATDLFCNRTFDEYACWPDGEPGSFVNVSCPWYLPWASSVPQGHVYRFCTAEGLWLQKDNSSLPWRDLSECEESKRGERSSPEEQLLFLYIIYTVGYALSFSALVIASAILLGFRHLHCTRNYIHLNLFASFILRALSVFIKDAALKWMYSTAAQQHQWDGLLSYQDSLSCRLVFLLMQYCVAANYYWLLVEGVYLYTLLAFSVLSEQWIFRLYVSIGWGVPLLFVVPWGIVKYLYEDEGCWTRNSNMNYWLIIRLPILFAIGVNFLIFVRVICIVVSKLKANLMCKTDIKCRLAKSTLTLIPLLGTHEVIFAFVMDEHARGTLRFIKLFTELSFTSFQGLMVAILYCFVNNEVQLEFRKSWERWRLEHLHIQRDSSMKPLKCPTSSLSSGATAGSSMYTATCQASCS

What is called EC50 is the concentration giving half of the maximal effect. A higher EC50 goes with a need for much substance. With “H-HSQGTFTSDYSKYLDRARADDFVAWLKST-NH2 [Compound 3]”, on hGLP-1-R (first test), the “ratio (GluR / GLP1R EC values)” value came to 1.27. Moreover, the “EC50[Glu]/EC50[GLP-1] ratio” value at hGLP-1-R (re-testing) is reported as 2.13. This substance showed an EC50 on hGLP-1-R (re-testing, cAMP, HEK293 hGLP-1-R) of 0.23 nM. Further, the body weight gain entry in test [1] (s.c. bolus 500 nmol/kg twice daily, 28 days, p<0.05 vs vehicle HFD) is “able to reduce body weight gain comparable to oxyntomodulin treatment”. Also, the “weight reducing effect over time” value in test [1] (s.c. twice daily, 4 weeks (FIG. 2)) was “sustained over time comparable to oxyntomodulin treatment and significantly different from exendin-4 treatment”.

For the substance “KRNRNNIA [IP-1, C-terminal octapeptide of oxyntomodulin]”, the “effect on food intake” value in test [2] is “fail to affect food intake”.
